According to ChEMBL document CHEMBL3045417, “Structure, Conformation and Absolute Configuration of New Antifeedant Dolabellanes from Trichilia trifolia” (2000):

Tested on: Sitophilus oryzae
Test: Antifeedant activity against Sitophilus oryzae (rice weevil) assessed as mean diet consumed after 72 hr by flour disk bioassay based feeding choice assay (reference value: 7.61 +/- 1.59 mg/day)
Type: functional

`C=C(C)[C@H]1CC[C@]2(C)C/C=C(\C)CC/C=C(\C(=O)O)CC[C@@H]12` showed an Activity of 1.17 mg/day.
`C=C(C)[C@H]1CC[C@]2(C)C[C@H](O)[C@]3(C)CCC=C(CC[C@@H]12)C(=O)O3` gave an Activity of 1.03 mg/day.
For `C=C(C)[C@H]1CC[C@]2(C)C/C=C(\C)C[C@@H]3C=C(CC[C@@H]12)C(=O)O3`, the Activity was 3.36 mg/day.
`C=C(C)[C@H]1CC[C@]2(C)C[C@H](OC(C)=O)[C@]3(C)CCC=C(CC[C@@H]12)C(=O)O3` showed an Activity of 6.61 mg/day.
For `C=C(C)[C@H]1CC[C@]2(C)C/C=C(\C)CC/C=C(\C(=O)OC)CC[C@@H]12`, the Activity was 6.74 mg/day.
